How the values were obtained:
Test in all cases: relative viability (nuclei count vs DMSO), 5 days (fraction); higher = more cells survive
[1] = compound: C1CNCCC1C2=CC(=NN2)C3=CC=NC=C3 + COc1cccc2cc(-c3nc([C@H]4CC[C@H](C(=O)O)CC4)n4ncnc(N)c34)[nH]c12 [OSI-027] (partner 0.5 µM)
Summary of the method: (§1)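 Five library-drug doses in √10 steps were combined with a fixed anchor-drug dose, or a single drug was given alone, by pin tool to lung cancer cell lines in 1536-well plates the day after seeding. Nuclei were stained and counted after 5 days. Relative viability is the nuclei count in treated wells over that in vehicle wells, taken as the median of duplicate plates.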

[2] = compound: C1CNCCC1C2=CC(=NN2)C3=CC=NC=C3 + Nc1ncn([C@H]2C[C@H](O)[C@@H](CO)O2)c(=O)n1 [Decitabine] (partner 2 µM)
Summary of the method: as §1

[3] = compound: C[C@@H](N)c1ccc(C(=O)Nc2ccnc3[nH]ccc23)cc1 + Nc1ncn([C@H]2C[C@H](O)[C@@H](CO)O2)c(=O)n1 [Decitabine] (partner 2 µM)
Summary of the method: as §1

Tanzisertib + Foretinib = compound: O[C@H]1CC[C@H](Nc2ncc3nc(Nc4c(F)cc(F)cc4F)n([C@H]4CCOC4)c3n2)CC1 [Tanzisertib] + COc1cc2c(Oc3ccc(NC(=O)C4(C(=O)Nc5ccc(F)cc5)CC4)cc3F)ccnc2cc1OCCCN1CCOCC1 [Foretinib] (partner 0.25 µM)
Summary of the method: as §1

NCI-H441 was tested, and the relative viability ([1]; first compound 0.08 µM) was 0.536, the relative viability ([1]; first compound 0.8 µM) was 0.769 and the relative viability ([1]; first compound 2.53 µM) was 0.736. For the same cell line, the relative viability ([1]; first compound 8 µM) was 0.867, the relative viability ([2]; first compound 0.08 µM) was 0.226 and the relative viability ([2]; first compound 0.8 µM) was 0.255. It also gave a relative viability ([2]; first compound 2.53 µM) of 0.243, a relative viability ([2]; first compound 8 µM) of 0.248 and a relative viability ([3]; first compound 0.04 µM) of 0.276. For the same cell line, the relative viability ([3]; first compound 0.1265 µM) was 0.279, the relative viability ([3]; first compound 0.4 µM) was 0.225 and the relative viability ([3]; first compound 1.265 µM) was 0.258. It also gave a relative viability ([3]; first compound 4 µM) of 0.238, a relative viability (Tanzisertib + Foretinib; first compound 0.08 µM) of 0.488 and a relative viability (Tanzisertib + Foretinib; first compound 0.253 µM) of 0.797. For the same cell line, the relative viability (Tanzisertib + Foretinib; first compound 0.8 µM) was 1.03, the relative viability (Tanzisertib + Foretinib; first compound 2.53 µM) was 0.994 and the relative viability (Tanzisertib + Foretinib; first compound 8 µM) was 0.752.

For NCI-H460, the relative viability ([1]; first compound 0.08 µM) was 0.496, the relative viability ([1]; first compound 0.8 µM) was 0.833 and the relative viability ([1]; first compound 2.53 µM) was 0.775. For the same cell line, the relative viability ([1]; first compound 8 µM) was 0.676, the relative viability ([2]; first compound 0.08 µM) was 0.379 and the relative viability ([2]; first compound 0.8 µM) was 0.608. For the same cell line, the relative viability ([2]; first compound 2.53 µM) was 0.554, the relative viability ([2]; first compound 8 µM) was 0.474 and the relative viability ([3]; first compound 0.04 µM) was 0.525. It also gave a relative viability ([3]; first compound 0.1265 µM) of 0.485, a relative viability ([3]; first compound 0.4 µM) of 0.581 and a relative viability ([3]; first compound 1.265 µM) of 0.575. It also gave a relative viability ([3]; first compound 4 µM) of 0.451, a relative viability (Tanzisertib + Foretinib; first compound 0.08 µM) of 1.05 and a relative viability (Tanzisertib + Foretinib; first compound 0.253 µM) of 1.03. For the same cell line, the relative viability (Tanzisertib + Foretinib; first compound 0.8 µM) was 0.884, the relative viability (Tanzisertib + Foretinib; first compound 2.53 µM) was 1.07 and the relative viability (Tanzisertib + Foretinib; first compound 8 µM) was 1.01.

Work on NCI-H520 yielded a relative viability ([1]; first compound 0.08 µM) of 0.247, a relative viability ([1]; first compound 0.8 µM) of 0.2 and a relative viability ([1]; first compound 2.53 µM) of 0.236. For the same cell line, the relative viability ([1]; first compound 8 µM) was 0.311, the relative viability ([2]; first compound 0.08 µM) was 0.445 and the relative viability ([2]; first compound 0.8 µM) was 0.519. It also gave a relative viability ([2]; first compound 2.53 µM) of 0.518, a relative viability ([2]; first compound 8 µM) of 0.498 and a relative viability ([3]; first compound 0.04 µM) of 0.579. It also gave a relative viability ([3]; first compound 0.1265 µM) of 0.552, a relative viability ([3]; first compound 0.4 µM) of 0.61 and a relative viability ([3]; first compound 1.265 µM) of 0.617. It also gave a relative viability ([3]; first compound 4 µM) of 0.569, a relative viability (Tanzisertib + Foretinib; first compound 0.08 µM) of 0.792 and a relative viability (Tanzisertib + Foretinib; first compound 0.253 µM) of 0.734. For the same cell line, the relative viability (Tanzisertib + Foretinib; first compound 0.8 µM) was 0.83, the relative viability (Tanzisertib + Foretinib; first compound 2.53 µM) was 0.753 and the relative viability (Tanzisertib + Foretinib; first compound 8 µM) was 0.757.

NCI-H596 gave a relative viability ([1]; first compound 0.08 µM) of 0.838, a relative viability ([1]; first compound 0.8 µM) of 0.763 and a relative viability ([1]; first compound 2.53 µM) of 0.784. For the same cell line, the relative viability ([1]; first compound 8 µM) was 0.736, the relative viability ([2]; first compound 0.08 µM) was 1.03 and the relative viability ([2]; first compound 0.8 µM) was 1.25. The relative viability ([2]; first compound 2.53 µM) was 0.922, the relative viability ([2]; first compound 8 µM) was 1.21 and the relative viability ([3]; first compound 0.04 µM) was 1.02. The relative viability ([3]; first compound 0.1265 µM) was 1.11, the relative viability ([3]; first compound 0.4 µM) was 1.09 and the relative viability ([3]; first compound 1.265 µM) was 1.19. For the same cell line, the relative viability ([3]; first compound 4 µM) was 1.13, the relative viability (Tanzisertib + Foretinib; first compound 0.08 µM) was 0.723 and the relative viability (Tanzisertib + Foretinib; first compound 0.253 µM) was 0.82. It also gave a relative viability (Tanzisertib + Foretinib; first compound 0.8 µM) of 0.724, a relative viability (Tanzisertib + Foretinib; first compound 2.53 µM) of 0.699 and a relative viability (Tanzisertib + Foretinib; first compound 8 µM) of 0.76.

For NCI-H647, the relative viability ([1]; first compound 0.08 µM) was 0.631, the relative viability ([1]; first compound 0.8 µM) was 0.68 and the relative viability ([1]; first compound 2.53 µM) was 0.66. The relative viability ([1]; first compound 8 µM) was 0.589, the relative viability ([2]; first compound 0.08 µM) was 0.296 and the relative viability ([2]; first compound 0.8 µM) was 0.378. The relative viability ([2]; first compound 2.53 µM) was 0.338, the relative viability ([2]; first compound 8 µM) was 0.392 and the relative viability ([3]; first compound 0.04 µM) was 0.314. For the same cell line, the relative viability ([3]; first compound 0.1265 µM) was 0.324, the relative viability ([3]; first compound 0.4 µM) was 0.419 and the relative viability ([3]; first compound 1.265 µM) was 0.521. For the same cell line, the relative viability ([3]; first compound 4 µM) was 0.335, the relative viability (Tanzisertib + Foretinib; first compound 0.08 µM) was 1.23 and the relative viability (Tanzisertib + Foretinib; first compound 0.253 µM) was 1.25. For the same cell line, the relative viability (Tanzisertib + Foretinib; first compound 0.8 µM) was 1.11, the relative viability (Tanzisertib + Foretinib; first compound 2.53 µM) was 1.29 and the relative viability (Tanzisertib + Foretinib; first compound 8 µM) was 1.12.

NCI-H650 was tested, and the relative viability ([1]; first compound 0.08 µM) was 0.513, the relative viability ([1]; first compound 0.8 µM) was 0.58 and the relative viability ([1]; first compound 2.53 µM) was 0.505. For the same cell line, the relative viability ([1]; first compound 8 µM) was 0.543, the relative viability ([2]; first compound 0.08 µM) was 0.284 and the relative viability ([2]; first compound 0.8 µM) was 0.322. It also gave a relative viability ([2]; first compound 2.53 µM) of 0.341, a relative viability ([2]; first compound 8 µM) of 0.303 and a relative viability ([3]; first compound 0.1265 µM) of 0.3. It also gave a relative viability ([3]; first compound 0.4 µM) of 0.369, a relative viability ([3]; first compound 4 µM) of 0.3 and a relative viability (Tanzisertib + Foretinib; first compound 0.08 µM) of 0.979. For the same cell line, the relative viability (Tanzisertib + Foretinib; first compound 0.253 µM) was 1.07, the relative viability (Tanzisertib + Foretinib; first compound 0.8 µM) was 1.04 and the relative viability (Tanzisertib + Foretinib; first compound 2.53 µM) was 1.09. For the same cell line, the relative viability (Tanzisertib + Foretinib; first compound 8 µM) was 1.08.

For NCI-H661, the relative viability ([1]; first compound 0.08 µM) was 0.707, the relative viability ([1]; first compound 0.8 µM) was 0.835 and the relative viability ([1]; first compound 2.53 µM) was 0.739. For the same cell line, the relative viability ([1]; first compound 8 µM) was 0.634, the relative viability ([2]; first compound 0.08 µM) was 0.549 and the relative viability ([2]; first compound 0.8 µM) was 0.57. For the same cell line, the relative viability ([2]; first compound 2.53 µM) was 0.541, the relative viability ([2]; first compound 8 µM) was 0.541 and the relative viability ([3]; first compound 0.04 µM) was 0.51. The relative viability ([3]; first compound 0.1265 µM) was 0.59, the relative viability ([3]; first compound 0.4 µM) was 0.573 and the relative viability ([3]; first compound 1.265 µM) was 0.493. The relative viability ([3]; first compound 4 µM) was 0.504, the relative viability (Tanzisertib + Foretinib; first compound 0.08 µM) was 1.07 and the relative viability (Tanzisertib + Foretinib; first compound 0.253 µM) was 0.999. The relative viability (Tanzisertib + Foretinib; first compound 0.8 µM) was 1, the relative viability (Tanzisertib + Foretinib; first compound 2.53 µM) was 1.04 and the relative viability (Tanzisertib + Foretinib; first compound 8 µM) was 0.995.

With NCI-H727 the relative viability ([1]; first compound 0.08 µM) was 0.613, the relative viability ([1]; first compound 0.8 µM) was 0.579 and the relative viability ([1]; first compound 2.53 µM) was 0.816. The relative viability ([1]; first compound 8 µM) was 0.815, the relative viability ([2]; first compound 0.08 µM) was 0.872 and the relative viability ([2]; first compound 0.8 µM) was 0.865. The relative viability ([2]; first compound 2.53 µM) was 0.871, the relative viability ([2]; first compound 8 µM) was 0.952 and the relative viability ([3]; first compound 0.04 µM) was 1. For the same cell line, the relative viability ([3]; first compound 0.1265 µM) was 1.03, the relative viability ([3]; first compound 0.4 µM) was 0.942 and the relative viability ([3]; first compound 1.265 µM) was 0.764. For the same cell line, the relative viability ([3]; first compound 4 µM) was 0.908, the relative viability (Tanzisertib + Foretinib; first compound 0.08 µM) was 0.88 and the relative viability (Tanzisertib + Foretinib; first compound 0.253 µM) was 1.02. It also gave a relative viability (Tanzisertib + Foretinib; first compound 0.8 µM) of 0.662, a relative viability (Tanzisertib + Foretinib; first compound 2.53 µM) of 0.936 and a relative viability (Tanzisertib + Foretinib; first compound 8 µM) of 0.91.

NCI-H838 was tested, and the relative viability ([1]; first compound 0.08 µM) was 0.385, the relative viability ([1]; first compound 0.8 µM) was 0.423 and the relative viability ([1]; first compound 2.53 µM) was 0.394. For the same cell line, the relative viability ([1]; first compound 8 µM) was 0.491, the relative viability ([2]; first compound 0.08 µM) was 0.431 and the relative viability ([2]; first compound 0.8 µM) was 0.441. For the same cell line, the relative viability ([2]; first compound 2.53 µM) was 0.46, the relative viability ([2]; first compound 8 µM) was 0.451 and the relative viability ([3]; first compound 0.04 µM) was 0.482. For the same cell line, the relative viability ([3]; first compound 0.1265 µM) was 0.47, the relative viability ([3]; first compound 0.4 µM) was 0.466 and the relative viability ([3]; first compound 1.265 µM) was 0.415. For the same cell line, the relative viability ([3]; first compound 4 µM) was 0.3, the relative viability (Tanzisertib + Foretinib; first compound 0.08 µM) was 1.1 and the relative viability (Tanzisertib + Foretinib; first compound 0.253 µM) was 1.01. For the same cell line, the relative viability (Tanzisertib + Foretinib; first compound 0.8 µM) was 1.11, the relative viability (Tanzisertib + Foretinib; first compound 2.53 µM) was 1.02 and the relative viability (Tanzisertib + Foretinib; first compound 8 µM) was 0.937.
